According to patent US20230279021A1, “POLYMORPHS OF A GABAA ALPHA5 AGONIST AND METHODS OF USING IN THE TREATMENT OF COGNITIVE IMPAIRMENT” (AGENEBIO, INC., priority 2020, published 2023):
Entries after “also recorded” stand apart in the source; their conditions may differ.

Tests used:
[1] = Thermal decomposition by DSC; format: physicochemical; conditions: 10° C./min
Procedure: DSC was performed using a Mettler-Toledo DSC3+ differential scanning calorimeter. A tau lag adjustment is performed with indium, tin, and zinc. The temperature and enthalpy are adjusted with octane, phenyl salicylate, indium, tin and zinc. The adjustment is then verified with octane, phenyl salicylate, indium, tin, and zinc. The sample was placed into a hermetically sealed aluminum DSC pan, the weight was accurately recorded, and the sample was inserted into the DSC cell. A weighed aluminum pan configured as the sample pan was placed on the reference side of the cell. The pan lid was pierced prior to sample analysis. The samples were analyzed from −25° C. to 250° C. at 10° C./min.

[2] = Competitive interconversion slurry experiments (relative thermodynamic stability of crystalline forms); format: physicochemical; conditions: solvent-mediated interconversion slurries, ambient temperature (Form E also 55° C. and 77° C.)
Procedure: Interconversion experiments were performed to identify the most thermodynamically stable anhydrous form of Compound 1 (Table 9). […] The choice of solvent affects the kinetics of polymorph conversion and not the thermodynamic relationship between polymorphic forms.
Various combinations of Forms B, E, F, and Material D were slurried with Form A at ambient and elevated temperatures (for experiments involving Form E). Different solvent systems were used and included a variety of water activities. Saturated solutions were generated and then added to the mixtures composed of approximately equivalent quantities of the forms. The mixtures were slurried for a particular duration of time and the solids harvested and analyzed by XRPD.

[3] = Solid-state stability of crystalline forms on storage or heating (XRPD); format: physicochemical
Procedure: XRPD patterns were collected with a PANalytical X'Pert PRO MPD or a PANalytical Empyrean diffractometer using an incident beam of Cu radiation produced using an Optix long, fine-focus source. An elliptically graded multilayer mirror was used to focus Cu Kα X-rays through the specimen and onto the detector. Prior to the analysis, a silicon specimen (NIST SRM 640e) was analyzed to verify the observed position of the Si 111 peak is consistent with the NIST-certified position. A specimen of the sample was sandwiched between 3-μm-thick films and analyzed in transmission geometry. A beam-stop, short antiscatter extension, and antiscatter knife edge were used to minimize the background generated by air. Soller slits for the incident and diffracted beams were used to minimize broadening from axial divergence. Diffraction patterns were collected using a scanning position-sensitive detector (X'Celerator) located 240 mm from the specimen and Data Collector software v. 5.5. […] All images have the instrument labeled as X'Pert PRO MPD regardless of the instrument used.

aged-impaired rats [4] = assay: Radial Arm Maze behavioral task, acute PO treatment; format: in vivo, Long-Evans rats; conditions: 10 mg/kg PO, 5-hr retention delay, compared to vehicle control
Procedure: (§1) Aged, male Long-Evans rats were obtained at 9 months of age from Charles River Laboratories (Raleigh, N.C.) and housed in a vivarium at The Johns Hopkins University until background behavioral assessment in a water maze at 24 months of age. Young rats obtained from the same source were housed in the same vivarium and were included in the background assessment at 6 months of age but were not used for drug testing in a radial arm maze task. All rats were individually housed at 25° C. and maintained on a 12 h light/dark cycle. Food and water were provided ad libitum unless noted otherwise. The rats were examined for health and pathogen-free status throughout the experiments, as well as necropsies at the time of killing. All procedures were in accordance with NIH guidelines using protocols approved by the Institutional Animal Care and Use Committee at The Johns Hopkins University.
All rats were screened in a standardized assessment of spatial cognition before the commencement of drug studies. The background assessment used a well-established Morris water maze protocol as described in detail elsewhere (Gallagher et al, 1993). Briefly, the rats were trained for 8 days (three trials per day) to locate a camouflaged escape platform that remained at the same location throughout training in a water maze. […]

[5] = pKa of Compound 1 free base; format: physicochemical
aged-impaired rats [6] = assay: Morris Water Maze behavioral task, acute and chronic IP treatment; format: in vivo, Long-Evans rats; conditions: 10 mg/kg IP, compared to vehicle control
Procedure: as §1
All rats were screened in a standardized assessment of spatial cognition before the commencement of drug studies. […]
Rats were trained and tested in a novel water maze environment to assess the effect of the treatments. […] An hour after the last training trial, rats were given a probe test in the absence of the escape platform (free swim) to assess the memory of the platform location as measured by time spent searching at the target location. […]

[7] = Dynamic vapor sorption (DVS) hygroscopicity; format: physicochemical; conditions: for hygroscopicity (DVS isotherm): 5% to 95% RH; for form of material recovered from the DVS experiment by XRPD: post DVS
Procedure: Dynamic vapor sorption data was collected on a Surface Measurement System DVS Intrinsic instrument. The samples were not dried prior to analysis. Sorption and desorption data were collected over a range from 5% to 95% RH in 10% RH increments under a nitrogen purge. The equilibrium criteria used for the analyses were 0.001 dm/dt weight change in 5 minutes with a minimum step time of 30 minutes and maximum equilibration time of 180 minutes with a 3-minute data logging interval. Data were not corrected for the initial moisture content of the sample. The samples were identified as having low, limited or significant hygroscopicity based on the definitions in the below table.

COCc1nnc2n1Cc1c(C#Cc3cnc(OC)s3)ncn1-c1ccc(Cl)cc1-2 [Form E]
DSC exotherm due to decomposition, onset [1]: ~201 °C | relative thermodynamic stability [2]: metastable relative to Form A

COCc1nnc2n1Cc1c(C#Cc3cnc(OC)s3)ncn1-c1ccc(Cl)cc1-2 [Material D]
DSC exotherm due to decomposition, onset [1]: ~174 °C | stability on ambient storage (XRPD) ([3]; 7 weeks of ambient storage, mixture with Form A): still remained | relative thermodynamic stability [2]: metastable relative to Form A

COCc1nnc2n1Cc1c(C#Cc3cnc(OC)s3)ncn1-c1ccc(Cl)cc1-2 [Form C]
DSC exotherm due to decomposition, onset [1]: 190 °C | stability under ambient conditions ([3]; 9 weeks under ambient conditions): unchanged | stability upon overnight exposure to 80° C. ([3]; overnight exposure to 80° C.): desolvate to Form B

COCc1nnc2n1Cc1c(C#Cc3cnc(OC)s3)ncn1-c1ccc(Cl)cc1-2 [Compound 1, 5-((3-chloro-7-(methoxymethyl)-9H-benzo[f]imidazo[1,5-a][1,2,4]triazolo[4,3-d][1,4]diazepin-10-yl)ethynyl)-2-methoxythiazole]
number of errors in radial arm maze retention test (aged-impaired rats [4]): fewer errors | pKa [5]: 1.16 ± 0.04 | time spent in target quadrant of the Morris Water Maze (aged-impaired rats [6]): more time in the target quadrant

COCc1nnc2n1Cc1c(C#Cc3cnc(OC)s3)ncn1-c1ccc(Cl)cc1-2 [Form A]
DSC exotherm due to decomposition, onset [1]: about 207 °C | hygroscopicity (DVS isotherm) [7]: limited hygroscopicity; also recorded: low hygroscopicity | weight change through the sorption/desorption cycle ([7]; DVS, no hysteresis): ~0.3% | form of material recovered from the DVS experiment by XRPD [7]: same as the starting material | relative thermodynamic stability [2]: more thermodynamically stable than Form B and Material D at ambient temperature and more thermodynamically stable than Form E at ambient temperature, 55° C., and 77 °C

COCc1nnc2n1Cc1c(C#Cc3cnc(OC)s3)ncn1-c1ccc(Cl)cc1-2 [Form B]
DSC exotherm due to decomposition, onset [1]: about 190 °C | relative thermodynamic stability [2]: metastable relative to Form A

COCc1nnc2n1Cc1c(C#Cc3cnc(OC)s3)ncn1-c1ccc(Cl)cc1-2 [Form F]
DSC exotherms following dehydration endotherm (decomposition upon dehydration) [1]: above 120 °C | hygroscopicity (DVS isotherm) [7]: limited hygroscopicity | weight gain ([7]; DVS, from 5-95% RH): 1.8% | weight loss upon desorption ([7]; DVS, significant hysteresis): 1.5% | form of material recovered from the DVS experiment by XRPD [7]: still Form F | stability under vacuum ([3]; 5 days under vacuum at ambient temperature): unchanged | stability upon exposure to 100° C. ([3]; exposure to 100° C. (several minutes, XRPD)): dehydrate; also recorded: loss of crystallinity
